In patent publication US9359311B2, “Substituted aromatic oligomers” (NEUROSCIOS GMBH, priority 2011, dated 2016):

These molecules were tested against T1, biotinylated Aβ1-42 (Homo sapiens, UniProt P05067) (assay: Inhibition of Abeta oligomerisation (biotinylated Aβ1-42, neutravidin plate, streptavidin-HRP)). Details: inhibition of Aβ1-42 aggregation, approximately 12 nM Aβ1-42, PBS pH 7.4, 2% DMSO, 30 min RT.
T1 construct: To assure monomerisation of biotinylated Aβ1-42 (Anaspec #23523-0.5) the peptide was thoroughly monomerised; purchased Anaspec 23523-0.5
T1 sequence (P05067 672-713 limits assumed): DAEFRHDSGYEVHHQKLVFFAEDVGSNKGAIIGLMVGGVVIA
Format: biochemical

Row | SMILES | IC50 [µM]
1 | O=C(O)Cc1cc(-c2cccs2)sc1-c1ccc(-c2sc(-c3ccc(C(=O)O)s3)cc2CC(=O)O)s1 [Example 12, 5-[4-(Carboxymethyl)-5-{5-[3-(carboxymethyl)-5-(thiophen-2-yl)thiophen-2-yl]thiophen-2-yl}thiophen-2-yl]thiophene-2-carboxylic acid] | 1.58
2 | O=C(O)Cc1cccc(-c2ccc(-c3cc(CC(=O)O)c(-c4ccc(-c5sc(-c6ccc(-c7cccc(CC(=O)O)c7)s6)cc5CC(=O)O)s4)s3)s2)c1 [Example 57, 2-(2-{5-[3-(Carboxymethyl)-5-{5-[3-(carboxymethyl)phenyl]thiophen-2-yl}thiophen-2-yl]thiophen-2-yl}-5-{5-[3-(carboxymethyl)phenyl]thiophen-2-yl}thiophen-3-yl)acetic acid] | 0.398
3 | O=C(O)Cc1cc(-c2ccccc2C(=O)O)sc1-c1ccc(-c2sc(-c3ccccc3C(=O)O)cc2CC(=O)O)s1 [Example 11, 2-[4-(Carboxymethyl)-5-{5-[3-(carboxymethyl)-5-(2-carboxyphenyl)thiophen-2-yl]thiophen-2-yl}thiophen-2-yl]benzoic acid] | 12.6
4 | CS(=O)(=O)c1cccc(-c2cc(CC(=O)O)c(-c3ccc(-c4sc(-c5cccc(S(C)(=O)=O)c5)cc4CC(=O)O)s3)s2)c1 [Example 22, 2-(2-{5-[3-(Carboxymethyl)-5-(3-methanesulfonylphenyl)thiophen-2-yl]thiophen-2-yl}-5-(3-methanesulfonylphenyl)thiophen-3-yl)acetic acid] | 2.51
5 | COC(=O)c1ccc(-c2cc(CC(=O)O)c(-c3ccc(-c4sc(-c5ccc(C(=O)OC)s5)cc4CC(=O)O)s3)s2)s1 [Example 70, 2-(2-{5-[3-(Carboxymethyl)-5-[5-(methoxycarbonyl)thiophen-2-yl]thiophen-2-yl]thiophen-2-yl}-5-[5-(methoxycarbonyl)thiophen-2-yl]thiophen-3-yl)acetic acid] | 3.16
6 | O=C(O)Cc1ccsc1-c1ccc(-c2sc(-c3ccc(-c4cc(CC(=O)O)c(-c5ccc(-c6sccc6CC(=O)O)cc5)s4)s3)cc2CC(=O)O)cc1 [Example 40, 2-(5-{5-[4-(Carboxymethyl)-5-{4-[3-(carboxymethyl)thiophen-2-yl]phenyl}thiophen-2-yl]thiophen-2-yl}-2-{4-[3-(carboxymethyl)thiophen-2-yl]phenyl}thiophen-3-yl)acetic acid] | 1.26
7 | C[S+]([O-])c1cccc(-c2cc(CC(=O)O)c(-c3ccc(-c4sc(-c5cccc([S+](C)[O-])c5)cc4CC(=O)O)s3)s2)c1 (stereo not shown) [Example 24, 2-(2-{5-[3-(Carboxymethyl)-5-(3-methanesulfinylphenyl)thiophen-2-yl]thiophen-2-yl}-5-(3-methanesulfinylphenyl)thiophen-3-yl)acetic acid] | 10
8 | O=C(O)c1cccc(-c2cc(CCO)c(-c3ccc(-c4sc(-c5cccc(C(=O)O)c5)cc4CCO)s3)s2)c1 [Example 74, 3-(5-{5-[5-(3-Carboxyphenyl)-3-(2-hydroxyethyl)thiophen-2-yl]thiophen-2-yl}-4-(2-hydroxyethyl)thiophen-2-yl)benzoic acid] | 5.01
9 | O=C(O)Cc1cc(-c2cccc(C(=O)NC3CC3)c2)sc1-c1ccc(-c2sc(-c3cccc(C(=O)NC4CC4)c3)cc2CC(=O)O)s1 [Example 80, 2-(2-{5-[3-(Carboxymethyl)-5-[3-(cyclopropylcarbamoyl)phenyl]thiophen-2-yl]thiophen-2-yl}-5-[3-(cyclopropylcarbamoyl)phenyl]thiophen-3-yl)acetic acid] | 7.94
10 | CS(=O)(=O)c1ccc(-c2sc(-c3ccc(-c4cc(CC(=O)O)c(-c5ccc(S(C)(=O)=O)cc5)s4)s3)cc2CC(=O)O)cc1 [Example 36, 2-(5-{5-[4-(Carboxymethyl)-5-(4-methanesulfonylphenyl)thiophen-2-yl]thiophen-2-yl}-2-(4-methanesulfonylphenyl)thiophen-3-yl)acetic acid] | 5.01
